One data set has as its system jawbones of rats. Particulars: jawbone fractures, gelatin sponges; cited from earlier work.
In the next data set the test system is tibias of rats. Conditions: titanium implants in tibias, daily into the abdominal cavity; cited from earlier work.
The test system of a further data set is bones of rats. Conditions: calcium sulfate carrier disks, eight weeks, compared to control group; cited from earlier work.
A further data set concerns parietal bone of rabbits. Conditions: parietal bone fractures, collagen sponges; cited from earlier work.
The nature of data set [1]: Solubility in ethanol and ethanol/water mixtures. Format: physicochemical.

The values below come from patent US8414958B2, “Implant and method for the manufacture thereof” (Thommen Medical AG, priority 2008, dated 2013).

`CCC(C)(C)C(=O)O[C@H]1C[C@@H](C)C=C2C=CC(C)[C@H](CC[C@@H]3C[C@@H](O)CC(=O)O3)[C@H]21` (stereo in doubt) [simvastatin, [(1S,3R,7R,8S,8aR)-8-[2-[(2R,4R)-4-hydroxy-6-oxo-oxan-2-yl]ethyl]-3,7-dimethyl-1,2,3,7,8,8a-hexahydronaphthalen-1-yl] 2,2-dimethylbutanoate]: in the data set with jawbones of rats, the “bone density above that of the control group receiving no active ingredient” value is 190-240% and the “formation of new bone in histological studies” value is listed as “enhanced formation of new bone was detectable”. The “bone density around the implant” value in the data set with tibias of rats is reported as “significant increase”. In addition, in the data set with bones of rats, the bone density result is “significant increase”, the bone mineral density entry is “significant increase” and the “mineral content of the bones” value is on record as “significant increase”. Besides, in the data set with parietal bone of rabbits, the “formation of new bone” value was “accelerated formation of new bone”.

As for `CCC(C)(C)C(=O)O[C@H]1C[C@@H](C)C=C2C=C[C@H](C)[C@H](CC[C@@H](O)C[C@@H](O)CC(=O)O)[C@H]21` [open-chain acid form of simvastatin], the solubility in water result is “water-soluble”. Further, the “ethanol content of the ethanol/water mixture in which the substance dissolves” value in data set [1] is on record as 25 % ethanol.
